# Measurements published in ChEMBL document CHEMBL1201862, “PubChem BioAssay data set” (2004).
# Active and inactive are the calls of the source.
# Columns and labels:
# [1] = molecular target: Glucose-6-phosphate 1-dehydrogenase (Homo sapiens, UniProt P11413); experiment: inhibition of Homo sapiens G6PD, dose series – biochemical, fluorescence, selectivity assay for P. falciparum G6PD inhibitor project, dose response (AID 504792); type: functional
# [2] = A Cell Based Secondary Assay To Explore Cytotoxicity of Compounds that Sensitize Mycobacterium Tuberculosis to Beta-Lactam Antibiotics.; type: functional
# [3] = molecular target: T1, Heat shock factor protein 1 (Mus musculus, UniProt P38532); experiment: decrease of HSF1-responsive luciferase luminescence – cell-based, NIH3T3, dose retest, confirmation (AID 2382); type: functional;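 further: NIH3T3 fibroblasts with HSF1-driven luciferase reporter stressed by proteasome inhibitor MG132; luminescence from HSF1-driven luciferase expression after 8 hours of MG132 stress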
# T1 sequence (P38532 whole entry): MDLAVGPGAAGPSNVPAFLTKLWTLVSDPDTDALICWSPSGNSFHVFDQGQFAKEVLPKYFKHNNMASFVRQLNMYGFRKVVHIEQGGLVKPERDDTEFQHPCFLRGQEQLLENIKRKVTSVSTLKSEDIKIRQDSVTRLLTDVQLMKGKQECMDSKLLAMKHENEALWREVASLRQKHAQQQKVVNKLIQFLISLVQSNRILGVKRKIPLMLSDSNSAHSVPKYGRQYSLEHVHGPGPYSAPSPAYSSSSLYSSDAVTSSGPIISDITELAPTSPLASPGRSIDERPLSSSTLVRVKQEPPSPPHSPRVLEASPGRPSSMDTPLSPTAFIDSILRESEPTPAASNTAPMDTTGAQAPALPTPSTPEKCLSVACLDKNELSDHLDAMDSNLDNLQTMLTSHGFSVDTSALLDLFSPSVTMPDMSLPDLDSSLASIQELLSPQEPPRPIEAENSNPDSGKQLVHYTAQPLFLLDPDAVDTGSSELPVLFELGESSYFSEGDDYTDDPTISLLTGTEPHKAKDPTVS
# [4] = viability of HCT116 lacking mutant beta-catenin – cell-based, human colon tumor, dose response (AID 1045); type: functional;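 further: HCT116 colon tumor cells with beta catenin knocked out; cells exposed to compound for 60 hours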
# [5] = viability of PTEN-deleted HCT116 cells – cell-based, HCT116 PTEN knockout, dose response (AID 1047); type: functional;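 further: HCT116 colon tumor cells with PTEN knocked out; cells exposed to compound for 60 hours before readout; potency for loss of cell viability measured by luminescence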
# [6] = non-specific 3'UTR reporter inhibition in Clone20-Shn3RL – cell-based, Renilla luciferase, cherry-picked, counter-screen for Shn3 inhibitor project, dose response (AID 624133); type: functional
# [7] = loss of viability in HepG2 cells – cell-based, CellTiter-Glo, cherry-picked, cytotoxicity control for Shn3 inhibitor project, dose response (AID 624134); type: functional
# [8] = reduction of Shn3 3'UTR-driven luciferase in osteoblasts – cell-based, Clone20 osteoblasts, firefly luciferase, cherry-picked, dose response (AID 624132); type: functional;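 further: firefly luciferase luminescence from reporter carrying the Shn3 3'UTR in osteoblasts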
# [9] = viability of uninfected HEp-2 cells – cell-based, HTS, cytotoxicity control for RSV inhibitor project, dose response (AID 2410); type: functional; conditions: human respiratory syncytial virus
# [10] = molecular target: T2, Corticotropin-releasing factor receptor 2/Corticotropin-releasing factor-binding protein (Homo sapiens, UniProt P24387+Q13324); experiment: Dose Response confirmation of uHTS hits for small molecule antagonists of the CRF-binding protein and CRF-R2 receptor complex.; type: functional; conditions: read-out: IC50_Mean
# T2 sequence (Q13324 whole entry): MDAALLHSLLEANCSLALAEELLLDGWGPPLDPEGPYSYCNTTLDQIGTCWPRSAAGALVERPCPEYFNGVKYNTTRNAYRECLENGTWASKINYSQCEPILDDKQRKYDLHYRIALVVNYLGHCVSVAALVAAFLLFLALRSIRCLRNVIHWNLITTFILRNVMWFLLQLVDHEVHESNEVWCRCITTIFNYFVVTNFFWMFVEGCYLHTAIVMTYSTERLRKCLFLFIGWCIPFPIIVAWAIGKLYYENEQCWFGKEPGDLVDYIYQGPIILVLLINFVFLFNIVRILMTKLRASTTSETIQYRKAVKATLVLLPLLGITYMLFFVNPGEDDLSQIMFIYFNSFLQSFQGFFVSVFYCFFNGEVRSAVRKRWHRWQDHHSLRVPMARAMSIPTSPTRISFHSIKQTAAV
# T2 sequence (P24387 whole entry): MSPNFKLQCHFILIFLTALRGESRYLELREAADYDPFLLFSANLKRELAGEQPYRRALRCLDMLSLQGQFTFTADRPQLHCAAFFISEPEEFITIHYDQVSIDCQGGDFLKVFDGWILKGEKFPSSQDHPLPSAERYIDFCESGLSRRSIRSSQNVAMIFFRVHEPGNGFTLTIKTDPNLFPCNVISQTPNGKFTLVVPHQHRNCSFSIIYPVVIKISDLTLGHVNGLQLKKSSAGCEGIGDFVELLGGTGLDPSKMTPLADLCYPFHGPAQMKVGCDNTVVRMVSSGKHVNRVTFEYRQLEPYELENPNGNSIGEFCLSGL
# [11] = molecular target: T2, Corticotropin-releasing factor receptor 2/Corticotropin-releasing factor-binding protein; experiment: activators of CRF receptor 2 with binding protein – uHTS hits, confirmation (AID 602473); type: functional; conditions: read-out: EC50_Mean
# [12] = blockers of CRF-binding protein–CRF-R2 complex – cell-based, uHTS hits, 384-well, dose response (AID 651639); type: functional, Homo sapiens; conditions: read-out: IC50_Mean
# [13] = molecular target: T1, Heat shock factor protein 1; experiment: enhancement of HSF1-driven luciferase signal – cell-based, NIH3T3, luminescence, dose retest, confirmation (AID 435004); type: functional;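 further: stress induced by proteasome inhibitor MG132 added 30 min after compound; luciferase reporter driven by HSF1 response element in NIH3T3 cells; actives raise luminescence as potentiators of the MG132 stress response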
# [14] = molecular target: Large T antigen (Simian virus 40, UniProt P03070); type: functional, Betapolyomavirus macacae;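 further: Confirmatory-stage PubChem screen for compounds that inhibit SV40 T antigen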
# Chain of Large T antigen (P03070 whole entry): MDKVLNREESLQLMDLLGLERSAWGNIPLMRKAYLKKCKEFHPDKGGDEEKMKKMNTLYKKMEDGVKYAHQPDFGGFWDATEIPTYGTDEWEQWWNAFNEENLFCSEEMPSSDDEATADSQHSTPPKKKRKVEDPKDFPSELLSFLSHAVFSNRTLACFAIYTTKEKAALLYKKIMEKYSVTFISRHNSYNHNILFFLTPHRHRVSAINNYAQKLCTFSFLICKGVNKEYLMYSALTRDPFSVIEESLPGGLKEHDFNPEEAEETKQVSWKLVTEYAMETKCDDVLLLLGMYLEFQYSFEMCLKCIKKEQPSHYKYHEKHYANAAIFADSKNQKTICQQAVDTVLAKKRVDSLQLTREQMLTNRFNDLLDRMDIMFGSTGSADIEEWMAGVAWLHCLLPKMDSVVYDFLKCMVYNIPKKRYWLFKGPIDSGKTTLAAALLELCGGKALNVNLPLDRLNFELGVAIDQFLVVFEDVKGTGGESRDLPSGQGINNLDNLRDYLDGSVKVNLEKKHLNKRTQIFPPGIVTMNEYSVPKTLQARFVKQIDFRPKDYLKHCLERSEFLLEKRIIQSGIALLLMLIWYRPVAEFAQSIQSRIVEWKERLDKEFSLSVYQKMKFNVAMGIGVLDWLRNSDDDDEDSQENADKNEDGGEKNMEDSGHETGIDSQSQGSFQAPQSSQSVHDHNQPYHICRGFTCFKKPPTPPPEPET
# [15] = molecular target: Genome polyprotein (dengue virus type 2, UniProt P29990); experiment: flavivirus cap methylation enzyme inhibition – biochemical, confirmation dose response, primary screen (AID 588689); type: functional
# Chain of Genome polyprotein (P29990 2492-3391 limits assumed): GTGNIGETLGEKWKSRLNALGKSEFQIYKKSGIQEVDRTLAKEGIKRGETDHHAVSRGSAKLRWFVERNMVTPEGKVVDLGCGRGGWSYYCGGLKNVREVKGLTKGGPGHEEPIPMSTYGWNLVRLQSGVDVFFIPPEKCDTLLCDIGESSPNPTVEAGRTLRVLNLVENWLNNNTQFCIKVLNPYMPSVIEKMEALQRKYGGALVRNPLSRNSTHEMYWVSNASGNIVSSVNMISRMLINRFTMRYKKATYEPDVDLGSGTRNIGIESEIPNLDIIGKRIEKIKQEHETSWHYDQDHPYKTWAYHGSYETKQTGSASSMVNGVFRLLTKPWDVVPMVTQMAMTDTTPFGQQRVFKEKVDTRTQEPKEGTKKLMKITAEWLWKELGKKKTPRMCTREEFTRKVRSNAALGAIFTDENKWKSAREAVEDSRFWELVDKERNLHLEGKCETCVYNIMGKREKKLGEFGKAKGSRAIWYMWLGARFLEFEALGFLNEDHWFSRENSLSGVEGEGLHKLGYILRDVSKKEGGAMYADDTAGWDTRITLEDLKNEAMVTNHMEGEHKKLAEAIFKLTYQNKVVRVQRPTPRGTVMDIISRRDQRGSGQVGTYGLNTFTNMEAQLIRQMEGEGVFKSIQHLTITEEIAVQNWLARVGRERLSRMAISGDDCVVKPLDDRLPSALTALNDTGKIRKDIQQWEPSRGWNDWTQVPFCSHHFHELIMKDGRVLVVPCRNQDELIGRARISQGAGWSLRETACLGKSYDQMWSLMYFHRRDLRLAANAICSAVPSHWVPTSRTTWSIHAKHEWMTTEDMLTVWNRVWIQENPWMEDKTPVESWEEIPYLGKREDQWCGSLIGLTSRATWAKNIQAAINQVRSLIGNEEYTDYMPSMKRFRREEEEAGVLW
# [16] = molecular target: T3, Carboxy-terminal domain RNA polymerase II polypeptide A small phosphatase 1 (Homo sapiens, UniProt Q9GZU7); experiment: CTDSP1 inhibitors, concentration-response, biochemical, absorbance readout, ultra-high-throughput screen actives (AID 540297); type: functional
# T3 sequence (Q9GZU7 whole entry): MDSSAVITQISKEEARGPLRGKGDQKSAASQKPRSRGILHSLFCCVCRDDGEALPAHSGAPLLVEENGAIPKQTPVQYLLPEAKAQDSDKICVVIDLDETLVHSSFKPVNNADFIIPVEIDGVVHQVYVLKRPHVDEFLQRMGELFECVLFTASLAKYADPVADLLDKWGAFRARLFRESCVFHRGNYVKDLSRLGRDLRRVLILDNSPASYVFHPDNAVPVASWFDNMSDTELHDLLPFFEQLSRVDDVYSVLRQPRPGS
# [17] = blockers of HIV-1 envelope-mediated cell-cell fusion – cherry-pick, dose response (AID 652057); type: functional, cell-based
# [18] = HIV-1 AD8 envelope cell-cell fusion blockers – cherry-pick, dose response (AID 652062); type: functional, cell-based;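 further: luciferase signal from cell-cell fusion driven by HIV-1 clade B AD8 Env; potency is for inhibitors of fusion seen as a drop in luminescence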
# [19] = tested on: SN12K1; experiment: cells; type: functional; conditions: Homo sapiens
# [20] = tested on: P388; experiment: cells; type: functional; conditions: Mus musculus
# [21] = tested on: P388/ADR; experiment: cells; type: functional; conditions: Mus musculus
# Chain of Glucose-6-phosphate 1-dehydrogenase (P11413 whole entry): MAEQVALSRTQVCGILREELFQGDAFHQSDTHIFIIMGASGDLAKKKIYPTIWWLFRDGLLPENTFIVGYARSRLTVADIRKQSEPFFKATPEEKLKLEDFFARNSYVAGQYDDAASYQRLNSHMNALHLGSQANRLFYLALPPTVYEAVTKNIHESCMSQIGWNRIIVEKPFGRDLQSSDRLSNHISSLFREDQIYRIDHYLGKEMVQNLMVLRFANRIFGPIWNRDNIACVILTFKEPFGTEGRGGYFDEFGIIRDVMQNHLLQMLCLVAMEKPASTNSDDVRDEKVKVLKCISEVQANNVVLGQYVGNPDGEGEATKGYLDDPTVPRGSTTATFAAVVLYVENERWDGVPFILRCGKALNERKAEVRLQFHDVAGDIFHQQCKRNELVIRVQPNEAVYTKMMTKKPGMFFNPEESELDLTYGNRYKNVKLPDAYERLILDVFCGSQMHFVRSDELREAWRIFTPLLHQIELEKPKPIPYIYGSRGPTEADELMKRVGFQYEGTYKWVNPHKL
smiles,measurement,setting,value
CCOC(=O)c1sc(NC(=O)CSc2nnc(Cc3ccccc3)o2)c(C#N)c1C,IC50,[1],> 80 µM (inactive)
CC(/C=C(\NC(=O)c1ccccc1)C(=O)N=Nc1c(O)[nH]c2ccc(C)cc12)=C\c1ccccc1,CC50,[2],33.7 µM (active)
same,EC50,[3],16.1 µM (active)
CCc1ccc(OCC(=O)NC(N=C(S)Nc2ccc(Cl)cc2)C(Cl)(Cl)Cl)cc1 (configuration not stated),EC50,[4],13.6 µM (active)
same,EC50,[5],13.8 µM (active)
same,AC50,[6],26.1 µM (active)
same,AC50,[7],18.1 µM (active)
same,AC50,[8],4.96 µM (active)
O=C(Nc1cccc2ccccc12)N1CCCN(c2c(Cl)cncc2Cl)CC1,CC50,[2],> 40 µM (active)
O=C(c1ccc(-c2ccccc2Cl)s1)N1CCOCC1,CC50,[9],> 50 µM (active)
Cc1nn(-c2cc(C(F)(F)F)ccc2Cl)c2nc(C(Cl)(Cl)Cl)nc(O)c12,IC50,[10],5.2 µM (active)
same,EC50,[11],> 53 µM (inactive)
same,IC50,[12],11.1 µM (active)
O=C(CBr)c1ccc([N+](=O)[O-])c(CS(=O)(=O)c2ccc(Cl)cc2)c1,EC50,[13],31.9 µM (active)
same,IC50,[1],> 80 µM (inactive)
Cn1c(=S)[nH]c2sc3c(c2c1=O)CCC(C(C)(C)C)C3 (configuration not stated),CC50,[2],10.7 µM (active)
CCCCn1c(CN2CCN(c3ccc(F)cc3)CC2)nc2c1c(=O)n(C)c(=O)n2C,AC50,[6],23 µM (active)
same,AC50,[7],5.36 µM (active)
same,AC50,[8],2.73 µM (active)
CC1CCCCC1NC(=O)CCCCCn1c(=S)[nH]c2ccsc2c1=O (configuration not stated),IC50,[10],< 0.368 µM (active)
same,EC50,[11],> 53 µM (inactive)
same,IC50,[12],> 20 µM (inactive)
CC(C)Cc1csc(NC(=O)c2ccc(Cl)cc2)c1C(=O)O,IC50,[10],5.06 µM (active)
same,EC50,[11],25.8 µM (active)
same,IC50,[12],17.8 µM (active)
C[C@H](NC(N)=O)C(=O)Nc1ccc(N2CCOCC2)c(S(=O)(=O)Nc2ccc(Cl)cc2)c1,IC50,[1],> 80 µM (inactive)
N#Cc1c(NC(=O)CSc2nc(-c3ccco3)cc(C(F)(F)F)n2)sc2c1CCCC2,CC50,[2],> 40 µM (active)
O=C1NC(=O)C(=Cc2ccc(-c3ccccc3[N+](=O)[O-])o2)C(=O)N1,IC50,[14],62.2 µM (active)
same,IC50,[1],> 80 µM (inactive)
same,IC50,[15],17.8 µM (active)
CCCCOC1CC(c2ccc(OCc3ccc(OC)cc3)c(OC)c2)N(C)O1 (configuration not stated),IC50,[10],15.4 µM (active)
same,EC50,[11],> 53 µM (inactive)
same,IC50,[12],> 20 µM (inactive)
O=C1CC(c2ccc(Cl)cc2)SC(N(c2ccccc2)c2ccccc2)=N1 (configuration not stated),IC50,[10],13.8 µM (active)
same,EC50,[11],> 53 µM (inactive)
same,IC50,[12],14.9 µM (active)
NC(Cc1ccc([N+](=O)[O-])cc1)=NOC(=O)c1ccc(Br)cc1,IC50,[12],9.44 µM (active)
CN(c1ccccc1)S(=O)(=O)c1ccc(Cl)c(C(=O)OCC(=O)NCc2ccco2)c1,IC50,[16],8.74 µM (active)
CCOc1ccc(NC(=O)c2ccc(NC(=O)c3ccc(NC(N)=O)cc3)cc2)cc1,IC50,[16],3.89 µM (active)
CC(Cl)=CCn1c(NCCc2ccccc2)nc2c1c(=O)n(C)c(=O)n2C,AC50,[17],33.4 µM (active)
same,AC50,[6],0.974 µM (active)
same,AC50,[7],58.8 µM (active)
same,AC50,[18],3.67 µM (active)
CCc1c(CNc2ccc(C(=O)NC(CC(=O)O)C(=O)O)cc2)ccc2nc(N)nc(N)c12 (configuration not stated),GI50,[19],< 0.0202 µM (active)
same,GI50,[20],< 0.0144 µM (active)
same,GI50,[21],0.0179 µM (active)
CNC(=O)c1cccc2c(Nc3ccc(NS(C)(=O)=O)cc3OC)c3cccc(C)c3nc12,GI50,[19],< 0.01 µM (active)
same,GI50,[20],< 0.01 µM (active)
same,GI50,[21],0.0488 µM (active)
Cc1nc2ccccc2c(=O)n1CC(=O)O,GI50,[19],> 100 µM (inactive)
same,GI50,[20],> 100 µM (inactive)
same,GI50,[21],> 100 µM (inactive)
Nc1ccc2c(c1)C1=NNC(=O)CC1C2 (configuration not stated),GI50,[19],> 100 µM (inactive)
same,GI50,[20],> 100 µM (inactive)
same,GI50,[21],> 100 µM (inactive)
O=C(C[C@@H]1CC[C@H]2[C@@H](COC[C@H](O)CN2Cc2cccc(C(F)(F)F)c2)O1)NCc1ccc(Cl)cc1,AC50,[17],4.85 µM (active)
same,AC50,[18],10.9 µM (active)
C[C@H](C(=O)N(C)C[C@@H]1OCc2ccccc2-c2ccccc2C(=O)N([C@@H](C)CO)C[C@H]1C)c1ccccc1,AC50,[17],1.23 µM (active)
same,AC50,[18],8.04 µM (active)
COc1ccccc1NC(=O)N[C@@H]1C=C[C@H](CC(=O)NCc2ccc(Cl)c(Cl)c2)O[C@@H]1CO,AC50,[17],14.6 µM (active)
same,AC50,[18],43 µM (active)
C=C1CC(OC)(C(OC)C(=O)N[C@H]2OCO[C@H]3C2O[C@H](C[C@@H](COC)OC)C(C)(C)C3OC)O[C@H](C)[C@@H]1C (some centres not stated),GI50,[19],1.06 µM (active)
same,GI50,[20],0.147 µM (active)
same,GI50,[21],0.57 µM (active)
Cc1ccc(-c2c(C(=O)N/N=C/c3ccsc3)nnn2-c2nonc2N)cc1,IC50,[1],> 80 µM (inactive)
C/C(N)=C(/C#N)C(=O)COC(=O)c1cc(-c2cccc(Br)c2)nc2ccccc12,CC50,[9],12.2 µM (active)
CC(=O)O[C@H]1CC[C@@]2(C)[C@H](CC[C@@H]3[C@@H]2CC[C@]2(C)[C@@H](c4ccc(=O)oc4)C[C@H]4O[C@]342)C1,GI50,[19],0.426 µM (active)
same,GI50,[20],11 µM (inactive)
same,GI50,[21],40.9 µM (inactive)
Nc1nc(N)c2cc(Sc3cccc(C(F)(F)F)c3)ccc2n1 [WR-159412],AC50,[6],19.7 µM (active)
same,AC50,[7],2.34 µM (active)
same,AC50,[8],4.87 µM (active)
